In paper PMC9132415, “Identification of 1H-pyrazolo[3,4-b]pyridine derivatives as novel and potent TBK1 inhibitors: design, synthesis, biological evaluation, and molecular docking study” (Journal of Enzyme Inhibition and Medicinal Chemistry, 2022):

Experiments:
[1] = biological target: ALK (Homo sapiens, UniProt Q9UM73); experiment: Kinase selectivity profile (SelectScreen); format: biochemical; settings: remaining kinase activity at 1.0 μM
Protocol: (§1) Compound 15y was evaluated for their inhibitory activities against 31 kinases at a single concentration (1 µM). Two different assay platforms were available for profiling—activity and binding. The Z′-LYTE and Adapta kinase activity assays were used most extensively for profiling and a smaller subset of kinases might be profiled using the LanthaScreen Eu Kinase Binding Assays.

[2] = biological target: ASK1 (Homo sapiens, UniProt Q99683); experiment: Kinase selectivity profile (SelectScreen); format: biochemical; settings: remaining kinase activity at 1.0 μM
ASK1, sequence (Q99683 whole entry): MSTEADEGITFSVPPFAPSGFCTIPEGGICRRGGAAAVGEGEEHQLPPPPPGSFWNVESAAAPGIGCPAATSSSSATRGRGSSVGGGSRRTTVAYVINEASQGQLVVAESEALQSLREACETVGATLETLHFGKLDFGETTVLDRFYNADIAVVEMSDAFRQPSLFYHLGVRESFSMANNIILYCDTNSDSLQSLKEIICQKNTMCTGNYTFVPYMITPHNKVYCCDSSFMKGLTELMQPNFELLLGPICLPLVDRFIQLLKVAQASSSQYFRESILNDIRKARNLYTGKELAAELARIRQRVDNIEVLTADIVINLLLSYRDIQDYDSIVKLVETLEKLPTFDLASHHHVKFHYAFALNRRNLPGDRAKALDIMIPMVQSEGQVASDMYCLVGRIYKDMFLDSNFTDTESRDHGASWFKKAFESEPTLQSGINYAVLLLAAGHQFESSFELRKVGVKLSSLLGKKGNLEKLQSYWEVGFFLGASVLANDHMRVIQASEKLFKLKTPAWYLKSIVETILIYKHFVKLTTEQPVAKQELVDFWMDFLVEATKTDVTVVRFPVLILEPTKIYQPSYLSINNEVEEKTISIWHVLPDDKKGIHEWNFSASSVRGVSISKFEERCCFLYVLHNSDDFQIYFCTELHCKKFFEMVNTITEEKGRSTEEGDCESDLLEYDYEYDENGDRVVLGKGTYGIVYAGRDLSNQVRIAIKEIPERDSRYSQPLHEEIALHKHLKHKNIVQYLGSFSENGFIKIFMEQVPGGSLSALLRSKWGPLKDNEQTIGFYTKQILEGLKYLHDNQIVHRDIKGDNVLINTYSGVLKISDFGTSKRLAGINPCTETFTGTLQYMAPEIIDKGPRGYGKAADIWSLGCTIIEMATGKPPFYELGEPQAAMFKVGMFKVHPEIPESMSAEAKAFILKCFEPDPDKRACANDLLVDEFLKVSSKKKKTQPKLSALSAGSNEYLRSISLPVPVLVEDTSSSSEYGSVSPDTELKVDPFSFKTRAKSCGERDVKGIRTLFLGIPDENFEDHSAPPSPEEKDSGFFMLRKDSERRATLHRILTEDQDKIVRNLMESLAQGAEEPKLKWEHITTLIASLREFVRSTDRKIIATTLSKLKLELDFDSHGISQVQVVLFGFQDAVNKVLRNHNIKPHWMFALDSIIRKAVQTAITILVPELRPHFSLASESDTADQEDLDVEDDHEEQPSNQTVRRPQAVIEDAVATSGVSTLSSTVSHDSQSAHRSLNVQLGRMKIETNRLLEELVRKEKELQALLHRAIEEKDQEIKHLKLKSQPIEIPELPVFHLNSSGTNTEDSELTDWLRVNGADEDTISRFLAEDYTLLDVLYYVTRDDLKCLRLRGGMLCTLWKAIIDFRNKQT
Protocol: as §1

[3] = biological target: EGFR (Homo sapiens, UniProt P00533); experiment: Kinase selectivity profile (SelectScreen); format: biochemical; settings: remaining kinase activity at 1.0 μM
EGFR, sequence (P00533 25-1210): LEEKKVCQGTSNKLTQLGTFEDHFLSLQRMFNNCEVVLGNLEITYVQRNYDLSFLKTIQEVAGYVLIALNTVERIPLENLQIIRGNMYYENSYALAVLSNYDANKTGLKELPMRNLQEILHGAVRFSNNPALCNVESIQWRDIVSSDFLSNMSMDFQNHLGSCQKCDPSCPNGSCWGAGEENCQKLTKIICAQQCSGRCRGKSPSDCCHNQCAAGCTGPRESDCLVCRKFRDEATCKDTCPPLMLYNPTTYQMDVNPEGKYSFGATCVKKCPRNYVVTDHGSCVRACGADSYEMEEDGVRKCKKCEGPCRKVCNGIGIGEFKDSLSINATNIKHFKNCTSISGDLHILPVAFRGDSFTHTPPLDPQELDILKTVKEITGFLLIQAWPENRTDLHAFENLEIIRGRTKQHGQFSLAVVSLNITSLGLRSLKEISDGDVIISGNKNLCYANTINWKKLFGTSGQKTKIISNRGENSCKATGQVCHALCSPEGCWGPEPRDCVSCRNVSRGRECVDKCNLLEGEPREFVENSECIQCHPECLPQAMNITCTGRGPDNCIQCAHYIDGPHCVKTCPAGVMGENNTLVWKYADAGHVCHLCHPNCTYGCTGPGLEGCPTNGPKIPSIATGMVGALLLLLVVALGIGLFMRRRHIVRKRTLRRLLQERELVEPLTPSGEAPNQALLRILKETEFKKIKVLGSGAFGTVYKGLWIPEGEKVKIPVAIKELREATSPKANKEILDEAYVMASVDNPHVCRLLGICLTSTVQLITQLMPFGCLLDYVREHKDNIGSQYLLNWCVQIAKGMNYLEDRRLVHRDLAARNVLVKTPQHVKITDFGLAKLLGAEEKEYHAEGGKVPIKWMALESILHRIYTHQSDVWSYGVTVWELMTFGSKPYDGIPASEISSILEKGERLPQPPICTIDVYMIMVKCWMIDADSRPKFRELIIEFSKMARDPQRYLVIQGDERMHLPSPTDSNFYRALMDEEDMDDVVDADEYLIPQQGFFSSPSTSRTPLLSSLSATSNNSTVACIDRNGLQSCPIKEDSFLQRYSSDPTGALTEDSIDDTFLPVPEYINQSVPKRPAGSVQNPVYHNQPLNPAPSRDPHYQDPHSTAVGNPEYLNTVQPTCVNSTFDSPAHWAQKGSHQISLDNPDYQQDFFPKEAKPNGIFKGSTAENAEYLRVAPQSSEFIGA
Protocol: as §1

[4] = biological target: IGF-1R (Homo sapiens, UniProt P08069); experiment: Kinase selectivity profile (SelectScreen); format: biochemical; settings: remaining kinase activity at 1.0 μM
Protocol: as §1

[5] = biological target: IKKβ (Homo sapiens, UniProt O14920); experiment: Kinase selectivity profile (SelectScreen); format: biochemical; settings: remaining kinase activity at 1.0 μM
Protocol: as §1

[6] = biological target: MAPKAP-K2 (Homo sapiens, UniProt P49137); experiment: Kinase selectivity profile (SelectScreen); format: biochemical; settings: remaining kinase activity at 1.0 μM
Protocol: as §1

[7] = biological target: MEK1 (Homo sapiens, UniProt Q02750); experiment: Kinase selectivity profile (SelectScreen); format: biochemical; settings: remaining kinase activity at 1.0 μM
Protocol: as §1

[8] = biological target: PI3K(p120g) (Homo sapiens, UniProt P48736); experiment: Kinase selectivity profile (SelectScreen); format: biochemical; settings: remaining kinase activity at 1.0 μM
PI3K(p120g), sequence (P48736 whole entry): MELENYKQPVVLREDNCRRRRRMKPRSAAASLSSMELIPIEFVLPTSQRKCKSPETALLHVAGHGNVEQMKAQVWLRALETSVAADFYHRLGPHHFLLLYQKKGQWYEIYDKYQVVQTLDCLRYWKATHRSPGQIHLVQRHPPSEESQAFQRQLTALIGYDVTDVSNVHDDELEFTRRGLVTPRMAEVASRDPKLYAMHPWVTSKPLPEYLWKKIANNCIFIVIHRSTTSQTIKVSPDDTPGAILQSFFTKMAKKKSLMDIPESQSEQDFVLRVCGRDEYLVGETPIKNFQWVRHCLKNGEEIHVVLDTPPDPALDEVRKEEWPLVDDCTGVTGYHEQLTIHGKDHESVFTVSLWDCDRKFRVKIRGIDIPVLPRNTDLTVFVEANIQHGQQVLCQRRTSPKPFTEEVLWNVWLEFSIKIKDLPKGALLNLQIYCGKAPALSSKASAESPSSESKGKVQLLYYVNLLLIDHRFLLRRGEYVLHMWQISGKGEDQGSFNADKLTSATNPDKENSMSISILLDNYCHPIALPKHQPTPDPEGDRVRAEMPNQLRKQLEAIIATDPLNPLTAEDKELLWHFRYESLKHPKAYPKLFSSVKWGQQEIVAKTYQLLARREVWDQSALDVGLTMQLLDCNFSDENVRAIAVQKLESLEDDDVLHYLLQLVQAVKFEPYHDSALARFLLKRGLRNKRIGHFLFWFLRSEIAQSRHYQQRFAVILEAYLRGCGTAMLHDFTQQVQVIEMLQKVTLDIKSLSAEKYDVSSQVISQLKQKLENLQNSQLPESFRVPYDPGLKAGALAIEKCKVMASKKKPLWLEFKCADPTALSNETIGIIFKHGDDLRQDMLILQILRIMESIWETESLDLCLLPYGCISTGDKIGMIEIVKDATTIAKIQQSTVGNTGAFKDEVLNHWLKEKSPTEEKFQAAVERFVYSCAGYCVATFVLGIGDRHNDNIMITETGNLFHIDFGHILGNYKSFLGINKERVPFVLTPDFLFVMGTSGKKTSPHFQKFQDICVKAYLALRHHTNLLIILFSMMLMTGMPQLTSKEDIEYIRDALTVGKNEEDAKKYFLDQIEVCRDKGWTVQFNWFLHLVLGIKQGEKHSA
Protocol: as §1

[9] = biological target: PKCα (Homo sapiens, UniProt P17252); experiment: Kinase selectivity profile (SelectScreen); format: biochemical; settings: remaining kinase activity at 1.0 μM
Protocol: as §1

[10] = biological target: PKCθ (Homo sapiens, UniProt Q04759); experiment: Kinase selectivity profile (SelectScreen); format: biochemical; settings: remaining kinase activity at 1.0 μM
Protocol: as §1

[11] = biological target: PKG1α (Homo sapiens, UniProt Q13976); experiment: Kinase selectivity profile (SelectScreen); format: biochemical; settings: remaining kinase activity at 1.0 μM
Protocol: as §1

[12] = biological target: PLK3 (Homo sapiens, UniProt Q9H4B4); experiment: Kinase selectivity profile (SelectScreen); format: biochemical; settings: remaining kinase activity at 1.0 μM
Protocol: as §1

[13] = biological target: PRAK (Homo sapiens, UniProt Q8IW41); experiment: Kinase selectivity profile (SelectScreen); format: biochemical; settings: remaining kinase activity at 1.0 μM
PRAK, sequence (Q8IW41 whole entry): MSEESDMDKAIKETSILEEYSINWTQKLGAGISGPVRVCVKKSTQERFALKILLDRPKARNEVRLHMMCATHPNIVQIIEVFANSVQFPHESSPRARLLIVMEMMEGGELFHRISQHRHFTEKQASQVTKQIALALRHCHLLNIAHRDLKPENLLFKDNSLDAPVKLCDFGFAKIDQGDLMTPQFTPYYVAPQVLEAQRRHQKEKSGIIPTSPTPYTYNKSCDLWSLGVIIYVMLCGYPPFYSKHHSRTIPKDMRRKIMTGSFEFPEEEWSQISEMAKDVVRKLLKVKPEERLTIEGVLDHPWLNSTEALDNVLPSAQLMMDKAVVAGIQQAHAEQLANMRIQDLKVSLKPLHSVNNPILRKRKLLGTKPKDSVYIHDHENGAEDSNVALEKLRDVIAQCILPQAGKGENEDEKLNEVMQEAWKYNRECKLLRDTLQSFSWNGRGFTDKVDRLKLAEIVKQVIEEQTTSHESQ
Protocol: as §1

[14] = biological target: SAPK2a (Homo sapiens, UniProt Q16539); experiment: Kinase selectivity profile (SelectScreen); format: biochemical; settings: remaining kinase activity at 1.0 μM
Protocol: as §1

[15] = biological target: SRPK1 (Homo sapiens, UniProt Q96SB4); experiment: Kinase selectivity profile (SelectScreen); format: biochemical; settings: remaining kinase activity at 1.0 μM
SRPK1, sequence (Q96SB4 whole entry): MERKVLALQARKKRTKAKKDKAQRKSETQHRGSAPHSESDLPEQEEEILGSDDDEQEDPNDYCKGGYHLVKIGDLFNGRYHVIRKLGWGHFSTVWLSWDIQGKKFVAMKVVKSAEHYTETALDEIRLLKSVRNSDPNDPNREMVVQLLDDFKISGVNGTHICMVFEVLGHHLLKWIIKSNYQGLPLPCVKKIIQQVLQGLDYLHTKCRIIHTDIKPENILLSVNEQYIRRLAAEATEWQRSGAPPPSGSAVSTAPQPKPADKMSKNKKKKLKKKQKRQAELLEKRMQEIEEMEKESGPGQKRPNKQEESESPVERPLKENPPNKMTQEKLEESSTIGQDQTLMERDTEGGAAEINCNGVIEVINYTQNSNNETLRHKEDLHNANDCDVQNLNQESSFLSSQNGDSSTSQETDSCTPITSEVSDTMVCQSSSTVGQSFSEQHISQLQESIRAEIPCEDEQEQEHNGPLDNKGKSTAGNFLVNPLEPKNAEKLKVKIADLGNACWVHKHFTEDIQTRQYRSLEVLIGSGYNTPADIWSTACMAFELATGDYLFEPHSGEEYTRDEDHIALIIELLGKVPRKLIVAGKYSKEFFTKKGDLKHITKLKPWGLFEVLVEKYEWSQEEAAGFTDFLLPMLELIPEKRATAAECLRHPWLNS
Protocol: as §1

[16] = biological target: mTOR (Homo sapiens, UniProt P42345); experiment: Kinase selectivity profile (SelectScreen); format: biochemical; settings: remaining kinase activity at 1.0 μM
Protocol: as §1

[17] = test system: ifnb and cxcl10 gene expression in THP-1 cells; experiment: mRNA detection of TBK1 downstream genes (RT-PCR), poly(I:C)-stimulated THP-1 cells; format: cell-based, human; settings: compound at 1 µM
[18] = test system: ifnb and cxcl10 gene expression in RAW264.7 cells; experiment: mRNA detection of TBK1 downstream genes (RT-PCR), LPS-stimulated RAW264.7 cells; format: cell-based; settings: LPS-stimulated murine RAW264.7 cells
[19] = test system: A172 cells; experiment: Antiproliferative activity, SRB staining; format: cell-based; settings: Homo sapiens, A 172, glioma cell line, 72 h
Protocol: (§2) A172, U87MG, A375, A2058, and Panc0504 cell lines were obtained from ATCC and cultured in indicated medium according to ATCC’s instructions. Cells were seeded in 96 well-plates at a destiny of around 2000 cells per well one day prior to administrated to increasing doses of indicated compounds. After 72 h of treatment, cells were washed with PBS and were fixed by 10% trichloroacetic acid before stained by sulphorhodamine B (SRB) solution. Unstained SRB were washed away by 1% acetic acid to reduce background signals. A Tris-based solution (10 mM) were used to dissolve stained SRB and the absorbance at 540 nm was measured with SpectraMax Paradigm (Molecular Devices). Inhibition rate was calculated by the relative absorbance value of test compound wells with the average of control wells […].

[20] = test system: A2058 cells; experiment: Antiproliferative activity, SRB staining; format: cell-based; settings: Homo sapiens, melanoma cell line, 72 h
Protocol: as §2

[21] = test system: A375 cells; experiment: Antiproliferative activity, SRB staining; format: cell-based; settings: Homo sapiens, A-375, melanoma cell line, 72 h
Protocol: as §2

[22] = test system: Panc0504 cells; experiment: Antiproliferative activity, SRB staining; format: cell-based; settings: Panc 05.04, pancreatic cell line, 72 h
Protocol: as §2

[23] = test system: U87MG cells; experiment: Antiproliferative activity, SRB staining; format: cell-based; settings: Homo sapiens, U-87 MG, glioma cell line, 72 h
Protocol: as §2

[24] = Cytotoxicity to normal cells; format: cell-based; settings: human, human umbilical vein endothelial cells (HUVECs)
From the text: Figure S1. The cytotoxicity of compound 15y on Human Umbilical Vein Endothelial Cells
(HUVECs). Data are representative of 3 independent experiments and are shown in mean ± SD
value. Nolin fit 4-parameters model were used to fit the curve and to calculate IC50 values by
(1 picture or pasted object on this page, not shown here)

[25] = biological target: T1, TBK1 (Homo sapiens, UniProt Q9UHD2); experiment: FRET-based Z'-LYTE TBK1 enzymatic assay; format: biochemical; design: purchased Thermo Scientific A31513; settings: 100 µM ATP
T1 sequence (Q9UHD2 1-729): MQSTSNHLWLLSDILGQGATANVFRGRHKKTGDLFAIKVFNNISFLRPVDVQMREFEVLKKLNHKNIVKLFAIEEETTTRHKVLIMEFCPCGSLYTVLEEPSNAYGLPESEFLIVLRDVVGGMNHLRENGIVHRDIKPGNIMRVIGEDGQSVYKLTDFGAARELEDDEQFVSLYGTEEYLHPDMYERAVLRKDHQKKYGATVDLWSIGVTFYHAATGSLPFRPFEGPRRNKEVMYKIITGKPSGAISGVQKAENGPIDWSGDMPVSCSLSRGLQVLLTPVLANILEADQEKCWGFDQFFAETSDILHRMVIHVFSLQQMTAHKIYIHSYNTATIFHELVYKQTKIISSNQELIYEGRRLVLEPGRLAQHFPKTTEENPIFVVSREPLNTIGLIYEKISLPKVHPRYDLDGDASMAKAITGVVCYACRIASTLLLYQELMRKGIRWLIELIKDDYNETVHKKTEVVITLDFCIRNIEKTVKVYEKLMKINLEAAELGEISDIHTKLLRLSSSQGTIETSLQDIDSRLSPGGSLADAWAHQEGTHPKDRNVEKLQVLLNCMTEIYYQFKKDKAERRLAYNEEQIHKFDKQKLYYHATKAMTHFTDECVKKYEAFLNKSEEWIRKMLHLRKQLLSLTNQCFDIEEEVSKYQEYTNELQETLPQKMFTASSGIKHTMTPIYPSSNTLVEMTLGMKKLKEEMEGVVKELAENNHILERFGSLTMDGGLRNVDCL

**Q.** Which results are given for `Cc1nc2c(F)cc(-c3n[nH]c4ncc(-c5cccc(S(N)(=O)=O)c5)cc34)cc2n1C(C)C` [Compound 15y]?
**A.** %kinase activity @ 1.0 μM, ALK [1]: 28%; %kinase activity @ 1.0 μM, ASK1 [2]: 56%; %kinase activity @ 1.0 μM, EGFR [3]: 66%; %kinase activity @ 1.0 μM, IGF-1R [4]: 88%; %kinase activity @ 1.0 μM, IKKβ [5]: 32%; %kinase activity @ 1.0 μM, MAPKAP-K2 [6]: 95%; %kinase activity @ 1.0 μM, MEK1 [7]: 52%; %kinase activity @ 1.0 μM, PI3K(p120g) [8]: 32%; %kinase activity @ 1.0 μM, PKCα [9]: 27%; %kinase activity @ 1.0 μM, PKCθ [10]: 33%; %kinase activity @ 1.0 μM, PKG1α [11]: 54%; %kinase activity @ 1.0 μM, PLK3 [12]: 101%; %kinase activity @ 1.0 μM, PRAK [13]: 60%; %kinase activity @ 1.0 μM, SAPK2a [14]: 60%; %kinase activity @ 1.0 μM, SRPK1 [15]: 58%; %kinase activity @ 1.0 μM, mTOR [16]: 30%; inhibition of cxcl10 expression [17]: > 93%; inhibition of ifnb expression [17]: > 93%; inhibition of ifnb and cxcl10 expression [18]: profound activity; IC50 [19]: 1.4 µM; IC50 [20]: 0.9 µM; IC50 [21]: 3.1 µM; IC50 [22]: 3.6 µM; IC50 [23]: 2.4 µM; IC50 [24]: 21.2 µM; inhibition at 0.0001 µM ([25]; compound at 0.1 nM, read-out: TBK1 inhibition (%) 0.1 nM): 33.6%; inhibition at 0.001 µM ([25]; compound at 1 nM, read-out: TBK1 inhibition (%) 1 nM): 88.8%; inhibition at 0.01 µM ([25]; compound at 10 nM, read-out: TBK1 inhibition (%) 10 nM): 93.8%; inhibition at 0.1 µM ([25]; compound at 100 nM, read-out: TBK1 inhibition (%) 100 nM): 102%; inhibition at 1 µM ([25]; compound at 1 μM, read-out: TBK1 inhibition (%) 1 μM): 53.9%; IC50 ([25]; mean of two separate experiments): 0.0002 µM
